# According to patent US12122780B2, “Pyrimidinyl group-containing tricyclic compound serving as c-Met inhibitor” (JIANGSU AOSAIKANG PHARMACEUTICAL CO., LTD., priority 2019, dated 2024):
# Counter-ions that a name gives are not always drawn.
# How the values were obtained:
# Hs746T cells = assay: Hs746T cell proliferation experiment (CellTiter-Glo); type: cell-based; conditions: Homo sapiens, 96 h, 4 days
# Description: DMEM medium was purchased from Gibco, and fetal bovine serum was purchased from Hyclone. Hs746T cell line was purchased from ATCC. Envision multi-label analyzer (PerkinElmer).
# Hs746T cells were seeded in a 384-well plate, 50 μL of cell suspension per well, which contained 1500 Hs746T cells. The cell plate was placed in a carbon dioxide incubator for overnight culture.
# The compounds to be tested were 3-fold diluted into 9 concentrations with Tecan, double-duplicate well experiment was set, and the final compound concentrations added to the 384-well cell plate were 1000 nM to 0.15 nM. The cell plate was cultured in a carbon dioxide incubator for 4 days.
# After 4 days, 25 μL of Promega CellTiter-Glo reagent was added to each well of this cell plate, and incubated at room temperature for 10 minutes to stabilize the luminescence signal. Readings were taken using a PerkinElmer Envision multi-label analyzer.
# The action curves of the compounds were automatically fitted using Xlfit software and the values of IC50 were calculated, High control was the values of DMSO-treated wells and Low control was the values of cell-free medium wells.
# EBC-1 cells = assay: EBC-1 cell proliferation experiment (CellTiter-Glo); type: cell-based, human; conditions: Homo sapiens, EBC-1, 72 h, 3 days
# Description: MEM medium, fetal bovine serum, penicillin/streptomycin antibiotics were purchased from Wisent. EBC-1 cell line was purchased from Nanjing COBIO Bioscience Co., LTD. Envision multi-label analyzer (PerkinElmer).
# EBC-1 cells were seeded in a white 96-well plate, […] cell suspension per well, which contained 3000 EBC-1 cells. The cell plate was placed in a carbon dioxide incubator for overnight culture.
# The compound to be tested was diluted 5-fold to the eighth concentration with a discharge gun, i.e., from 2 mM to […], and double duplicate wells experiment was set. 78 μL of the medium was added to the middle plate, then 2 μL per well of gradient diluted compound was transferred to the corresponding position on the middle plate, then mixed well and 20 μL per well was transferred to the cell plate. The cell plate was cultured in a carbon dioxide incubator for 3 days. Another cell plate was prepared and the signal values were read on the day of dosing as […] to be used in the data analysis. 25 μL of Promega CellTiter-Glo was added to each well of this cell plate, and incubated at room temperature for 10 minutes to stabilize the luminescence signal. Readings were taken using a PerkinElmer Envision multi-label analyzer.
# 25 μL of Promega CellTiter-Glo reagent was added to each well of this cell plate, and incubated at room temperature for 10 minutes to stabilize the luminescence signal. Readings were taken using a PerkinElmer Envision multi-label analyzer.
# Using the equation (Sample-Min)/(Max-Min)*100% to convert the original data to the inhibition rate, the IC50 value can be obtained by curve fitting with four parameters (obtained by “log(inhibitor) vs. response in GraphPad Prism—Variable slope mode).
# c-Met enzyme = c-Met enzyme (Homo sapiens (Human), UniProt P08581); assay: c-Met enzyme activity inhibition (Promega c-Met Kinase Enzyme System, ADP-Glo); type: biochemical; conditions: 10 μM ATP, 60 min, 30° C.
# Sequence of c-Met enzyme (P08581 956-1390): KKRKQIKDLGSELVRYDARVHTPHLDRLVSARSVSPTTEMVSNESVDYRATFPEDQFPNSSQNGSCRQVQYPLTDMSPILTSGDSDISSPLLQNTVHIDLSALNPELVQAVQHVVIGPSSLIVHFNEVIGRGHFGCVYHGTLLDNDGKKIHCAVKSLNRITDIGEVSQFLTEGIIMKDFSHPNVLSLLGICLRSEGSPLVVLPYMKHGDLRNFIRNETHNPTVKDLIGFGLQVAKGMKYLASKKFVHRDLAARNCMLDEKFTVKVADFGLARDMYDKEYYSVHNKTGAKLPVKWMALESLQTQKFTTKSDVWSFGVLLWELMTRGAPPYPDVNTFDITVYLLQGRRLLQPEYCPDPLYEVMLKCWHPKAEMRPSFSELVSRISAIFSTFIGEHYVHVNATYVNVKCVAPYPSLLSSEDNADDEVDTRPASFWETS
# Description: To detect the inhibitory effect of the compounds on c-Met enzyme activity.
# The c-Met Kinase Enzyme System was purchased from Promega. Envision multi-label analyzer (PerkinElmer).
# The kinase buffer in the kit was used to dilute the enzyme, substrate, ATP and inhibitor.
# The compound to be tested was diluted 5-fold to the eighth concentration with a discharge gun, i.e., from 50 μM to […], with a final DMSO concentration of 5%, and double duplicate wells experiment was set. 1 μL of each concentration gradient of the inhibitor, 2 μL of c-Met enzyme (4 ng), 2 μL of a mixture of the substrate and ATP (10 μM ATP, 0.2 μg/μL poly E4Y1) were added to the microplate, and the final concentration gradient of the compound of 10 μM was diluted to 0.13 nM. The reaction system was placed at 30° C. and the reaction was carried out for 60 minutes. When the reaction was completed, 5 μL of ADP-Glo reagent was added to each well and the reaction was carried out at 30° C. for another 40 minutes, when the reaction was completed, 10 μL of kinase detection reagent was added to each well, then the reaction was carried out at 30° C. for still another 30 minutes, chemiluminescence was read by the PerkinElmer Envision multi-label analyzer with an integration time of 0.5 seconds.
# Using the equation (Sample-Min)/(Max-Min)*100% to convert the original data to the inhibition rate, the IC50 value can be obtained by curve fitting with four parameters (obtained by log(inhibitor) vs. response in GraphPad Prism—Variable slope mode).
# [1] = tested on: human lung cancer EBC-1 xenograft tumor; assay: In vivo drug efficacy, human lung cancer EBC-1 xenograft tumor in nude mice; design: species or system BALB/c nude mice; conditions: for Tumor volume: n = 6
# Description: BALB/c nude mice, female, 6-8 weeks old, weighing about 18-20 grams, animals were raised in SPF-class animal rooms in IVC (independent air supply system, constant temperature and humidity) cages (3 per cage). All cages, bedding and water were disinfected before use. All animals had free access to standard certified commercial laboratory diets. A total of 36 mice purchased from Shanghai Lingchang Biotechnology Co., Ltd. were used for research. Each animal was inoculated with 0.1 mL (5×10^6 cells) of EBC-1 cells on the right back, when the average tumor volume reached 243 mm^3, the animals were randomly grouped and the administration was started. The test compound was orally administered daily, the dose of hydrochloride of compound 24 was 10 mg/kg, the two doses of hydrochloride of compound 25 were 10 mg/kg and 20 mg/kg, respectively, and the dose of hydrochloride of compound 29 was 10 mg/kg. The tumor diameter was measured with vernier calipers twice a week. The calculation formula of tumor volume was: V=0.5a×b^2, a and b represented the long diameter and short diameter of the tumor, respectively. The anti-tumor efficacy of the compound was evaluated by TGI (%) or the relative tumor proliferation rate T/C (%). Relative tumor proliferation rate T/C (%)=TRTV/CRTV×100% (TRTV: average RTV in the treatment group; CRTV: average RTV in the negative control group). The relative tumor volume (RTV) was calculated according to the results of tumor measurement, the calculation formula was RTV=Vt/V0, wherein V0 was the tumor volume measured at the time of the grouping administration (i.e. D0), Vt was the tumor volume at a certain measurement, and TRTV and CRTV were taken on the same day. TGI (%) reflected the tumor growth inhibition rate. TGI (%)=[(1−(average tumor volume of a certain treatment group after administration-average tumor volume of the treatment group at the beginning of administration))/(average tumor volume of the solvent control group after the administration-average tumor volume of the solvent control group at the beginning of the administration)]×100%. Statistical analysis was performed based on RTV data at the end of the experiment, and SPSS software was used for analysis.
SMILES,IC50 (Hs746T cells) [nM],IC50 (EBC-1 cells) [nM],IC50 (c-Met enzyme) [nM],also measured
N#Cc1ccc2nc3n(Cc4cccc(-c5ncc(OCC6CCN(CCO)CC6)cn5)c4)c(=O)ccn3c2c1 [Hydrochloride of compound 30],2,7.09,7.48,
COC1(COc2cnc(-c3cccc(Cn4c(=O)ccn5c6cc(C#N)ccc6nc45)c3)nc2)CCN(CCO)CC1 [Hydrochloride of compound 41],2.3,5.08,6.63,
CCN1CCC(COc2cnc(-c3cccc(Cn4c(=O)ccn5c6cc(C#N)ccc6nc45)c3)nc2)CC1 [Hydrochloride of compound 24],,4.26,2.03,"Tumor volume ([1]; 10 mg/kg oral daily (stopped after 15 days), day 18, mean ± standard error): 123 ± 31 mm^3; Tumor volume ([1]; 10 mg/kg oral daily (stopped after 15 days), day 21, mean ± standard error): 164 ± 45 mm^3; Tumor volume ([1]; 10 mg/kg oral daily (stopped after 15 days), day 25, mean ± standard error): 257 ± 72 mm^3; Tumor volume ([1]; 10 mg/kg oral daily (stopped after 15 days), day 25, mean ± standard error, listed as hydrochloride of compound 24): 257 mm^3; Tumor volume ([1]; 10 mg/kg oral daily (stopped after 15 days), day 27, mean ± standard error): 366 ± 92 mm^3; TGI (tumor growth inhibition rate) ([1]; 10 mg/kg oral daily, 25th day): 99.3%; TRTV/CRTV (relative tumor proliferation rate T/C) ([1]; 10 mg/kg oral daily, 25th day): 13.7%; Tumor volume ([1]; 10 mg/kg oral daily, day 0, mean ± standard error): 244 ± 23 mm^3; Tumor volume ([1]; 10 mg/kg oral daily, day 4, mean ± standard error): 270 ± 22 mm^3; Tumor volume ([1]; 10 mg/kg oral daily, day 7, mean ± standard error): 224 ± 16 mm^3; Tumor volume ([1]; 10 mg/kg oral daily, day 11, mean ± standard error): 142 ± 24 mm^3; Tumor volume ([1]; 10 mg/kg oral daily, day 14, mean ± standard error): 120 ± 25 mm^3"
COC1(COc2cnc(-c3cccc(Cn4c(=O)ccn5c6cc(C#N)ccc6nc45)c3)nc2)CCN(C(C)C)CC1 [Hydrochloride of compound 38],3.2,8.51,7.65,
CC(C)N1CCC(O)(COc2cnc(-c3cccc(Cn4c(=O)ccn5c6cc(C#N)ccc6nc45)c3)nc2)CC1 [Hydrochloride of compound 37],2.5,4.91,4.26,
COC1(COc2cnc(-c3cccc(Cn4c(=O)ccn5c6cc(C#N)ccc6nc45)c3)nc2)CCN(C)CC1 [Hydrochloride of compound 36],2.7,6.13,7.38,
CN1CCC(O)(COc2cnc(-c3cccc(Cn4c(=O)ccn5c6cc(C#N)ccc6nc45)c3)nc2)CC1 [Hydrochloride of compound 34],2.6,4.91,2.82,
